This is an account of results in patent US12350246B2 (Cancer Prevention Pharmaceuticals, Inc., priority 2015, dated 2025).

One data set concerns COX. The note with it: cited from earlier work.
The conditions of data set [1]: in vivo; cited from earlier work.
The nature of data set [2]: Drug excipient compatibility: XRPD. Type of data set: physicochemical. The note with it: 40° C./75% RH, four weeks. On the procedure: A non-cGMP drug excipient compatibility study for eflornithine HCl/sulindac combination tablet was conducted. Appearance, HPLC Assay and XRPD properties were evaluated using a series of samples. The excipients that were tested included PVP, HPMC, lactose, EXPLOTAB™, Ac-Di-Sol®, PROSOLV®, STARCH 1500®, and OPADRY® Yellow. […] Total mass of most samples was approximately 750 mg. Preparation involved weigh off of components into 20cc scintillation vials, closed and vortexed for approximately 30 seconds. The samples were then stored in a 40° C./75% RH stability chamber for four weeks. Lids on the vials were loosely secured and were protected from light while stored in the chamber. XRPD analysis was conducted on a Bruker AXS D8 Advance system with a Bragg-Brentano configuration using the CuKα radiation. Samples were analyzed at room temperature using the following parameters: 40 kV, 40 mA, 1° divergence and antiscatter slits, a method measuring in continuous mode from 2-40°2Θ with a 0.05° step and 1 second/step time. Between 3 and 25 mg of sample was analyzed using a rotating, top-filled steel sample holder in a nine-position auto-sampler accessory. The system was calibrated using traceable standards.

A short description of data set [3]: Drug excipient compatibility: appearance and HPLC assay. The following applies: 40° C./75% RH, four weeks. The class given is physicochemical. The procedure:
A non-cGMP drug excipient compatibility study for eflornithine HCl/sulindac combination tablet was conducted. Appearance, HPLC Assay and XRPD properties were evaluated using a series of samples. The excipients that were tested included PVP, HPMC, lactose, EXPLOTAB™, Ac-Di-Sol®, PROSOLV®, STARCH 1500®, and OPADRY® Yellow. […] Total mass of most samples was approximately 750 mg. Preparation involved weigh off of components into 20cc scintillation vials, closed and vortexed for approximately 30 seconds. The samples were then stored in a 40° C./75% RH stability chamber for four weeks. Lids on the vials were loosely secured and were protected from light while stored in the chamber. Appearance observations were conducted by visual examination of the vials prepared for HPLC analysis. […] Excipient compatibility samples were analyzed using a method capable of detecting both actives, cflornithine and sulindac (FIG. 4A). The method employs a gradient reverse phase HPLC with Ultraviolet (UV) detection at 195 nm.

The subject of data set [4] is tumors harboring Ki-ras mutations. The note with it: reduced from 90%; cited from earlier work.
The test system of another data set is tumor putrescine levels. The note with it: eflornithine infusion, without suppressing peripheral platelet counts; cited from earlier work.
Data set [5] concerns prostoglandin E2 (PGE2) levels in flat mucosa. The following applies: 300 mg/day, one month; cited from earlier work.
The conditions of data set [6]: in vivo; cited from earlier work. This is another data set of the same source.
The conditions of data set [7]: cited from earlier work.

Counter-ions that a name gives are not always drawn.

Take `CC1=C(CC(=O)O)c2cc(F)ccc2/C1=C\c1ccc(S(C)(=O)=O)cc1` [Sulindac sulfone]: in the data set on COX, the COX-inhibitory activity result is reported as “lacks COX-inhibitory activity”.
With `Cc1ccc(-c2cc(C(F)(F)F)nn2-c2ccc(S(N)(=O)=O)cc2)cc1` [celecoxib, 4-[5-(4-Methylphenyl)-3-(trifluoromethyl)pyrazol-1-yl]benzenesulfonamide], in [1], the “Increase in rates of heart and blood vessel disease” value is on record as 30%; the “Risks of gastrointestinal side effects” value was “greater than 80%”.
For `NCCCC(N)(C(=O)O)C(F)F` (stereo not drawn) [eflornithine HCl], the “Compatibility with excipients (XRPD)” value in [2] is “compatible with the potential excipients”. For the same compound, the “Compatibility with excipients (appearance, HPLC assay)” value in [3] is “compatible with the potential excipients”.
For the compound `NCCCC(N)(C(=O)O)C(F)F` (stereo not drawn) [eflornithine, 2,5-diamino-2-(difluoromethyl)pentanoic acid], in data set [4], the “Tumors harboring Ki-ras mutations” value is reported as 36%. Also, in the data set on tumor putrescine levels, the “Decrease in tumor putrescine levels” value is reported as 90%.
For the compound `CC(C)Cc1ccc(C(C)C(=O)O)cc1` (stereo not drawn) [ibuprofen], in data set [5], the “PGE2 levels in flat mucosa” value is listed as “significant decrease”.
For the compound `CN1C(C(=O)Nc2ccccn2)=C(O)c2ccccc2S1(=O)=O` [piroxicam, 4-hydroxy-2-methyl-N-2-pyridyl-2H-1,2-benzothiazine-3-carboxamide 1,1-dioxide], in data set [4], the “Tumors harboring Ki-ras mutations” value is reported as 25%.
Consider `CC1=C(CC(=O)O)c2cc(F)ccc2/C1=C\c1ccc([S+](C)[O-])cc1` (stereo not drawn) [sulindac, (Z)-5-fluoro-2-methyl-1-((4-(methylsulfinyl)phenyl)methylene)-1H-indene-3-acetic acid], for which the “Compatibility with excipients (XRPD)” value in data set [2] is reported as “compatible with the potential excipients”. Moreover, in [6], the “Mild gastrointestinal effects, patients affected” value is given as approximately 20%; the “Skin rash and pruritus, patients affected” value is reported as 5%. The “Fraction of the drug absorbed” value in data set [7] (after oral administration) is reported as “about 90%”. Also, the “Time to peak plasma levels” value in [7] (fasting patients) was “about 2 hours”. Moreover, the “Compatibility with excipients (appearance, HPLC assay)” value in [3] was “compatible with the potential excipients”.
